≈ marks a conversion by molar mass, not a printed value.
T1: HsaSiglec+Unique (SLBRHsa, GST fusion), wild-type, Streptococcus gordonii strain Challis (Streptococcus gordonii, UniProt A8AWU7)
T1 construct: the Siglec and Unique domains of Hsa; made in house
T1 sequence (A8AWU7 220-449 limits assumed): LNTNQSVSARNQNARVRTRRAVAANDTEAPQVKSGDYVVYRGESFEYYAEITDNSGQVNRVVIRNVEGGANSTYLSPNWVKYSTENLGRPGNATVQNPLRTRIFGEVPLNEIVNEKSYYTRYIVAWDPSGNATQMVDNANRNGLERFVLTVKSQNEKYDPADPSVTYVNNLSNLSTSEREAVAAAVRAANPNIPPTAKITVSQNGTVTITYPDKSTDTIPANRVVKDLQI

T2: UB10712Siglec+Unique (SLBRUB10712, GST fusion), S. gordonii strain UB10712, variant E285R (Streptococcus mitis, UniProt A0A6I8WFK9)
T2 sequence (A0A6I8WFK9 1-210): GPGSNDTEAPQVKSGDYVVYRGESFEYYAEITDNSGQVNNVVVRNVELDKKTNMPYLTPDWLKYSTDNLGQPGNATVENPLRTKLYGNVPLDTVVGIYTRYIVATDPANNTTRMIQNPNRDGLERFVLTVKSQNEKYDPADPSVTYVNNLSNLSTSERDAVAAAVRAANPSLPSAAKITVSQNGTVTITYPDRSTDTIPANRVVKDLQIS

B1: GspBSiglec+Unique: wild-type Siglec and Unique domains of GspB from S. gordonii strain M99 (protein)
chain: DTERPVVNVPSEITVYRGESFEYFATVTDNSNAFDLAKTVVRWLYNNQPGRGTEWLQYSVTQVGNQLKVRIFGNVPIDTTIGDYTRYVVATDAAGNVNATQTEMGNAAVDKTSVNGQFKLIIRFRIKTPENTVFVNNPNQLTEVEKNLVREAVKKSNPDLRAQDVLNSNYVTGITVSNNGTTTITYRDGRKDIIDGSKFIDTR

Legend:
[1] = biological target: T1, HsaSiglec+Unique (SLBRHsa, GST fusion), wild-type, Streptococcus gordonii strain Challis; experiment: ELISA, biotinylated sialoglycan binding to immobilized GST-adhesin; conditions: ligands chosen for costructures
Experimental: (§1) 19. FIGS. 9A, 9B, 9C, and 9D show the impact of flexibility of sialoglycan binding by HsaBR. […] As a note, Hsa^S253 contains Ramachandran angles in the generously allowed region. FIGS. 9B, 9C, and 9D show dose response curves of wild-type and variant GST-HsaSiglec+Unique (500 nM) immobilized in 96-well plates and binding to 9B. the Neu5Ac-Gal disaccharide, 9C. sialyl-T antigen, and 9D. 3′sialyl-N-acetyllactosamine. Biotinylated sialoglycan ligands were added at the indicated concentrations. Binding is reported as the mean±standard deviation, with n=2.
(§2) 20. FIGS. 10A, 10B, 10C, 10D, and 10E show chimeragenesis of Hsa-like adhesins. Dose-response curves of 10A wild-type GST-SK678Siglec+Unique, 10B wild-type GST-UB10712Siglec+Unique, and 10C wild-type GST-HsaSiglec+Unique to five selected ligands. D and E. Dose-response curves of the chimeras D. GST-SK678^Hsa-loops and E. UB10712^Hsa-loops which contain the CD, EF, and FG loops of Hsa.

[2] = system: UB10712Siglec+Unique (SLBRUB10712, GST fusion), S. gordonii strain UB10712, chimera +Hsa CD loop; experiment: ELISA, biotinylated sialoglycan binding to immobilized GST-adhesin chimera; parameters: species or system Streptococcus gordonii strain UB10712; conditions: +SLBRHsa CD loop; one-point, 1-2 μg/ml biotinylated glycans
From the text: (§3) 21. FIGS. 11A, and 11B show chimeras of SRR adhesins. […] Values correspond to the mean±standard deviation, with n=2 (wt) or n=3 (variants). […] Values correspond to the mean±standard deviation, with n=2 (wt) or n=3 (variants).

[3] = system: UB10712Siglec+Unique (SLBRUB10712, GST fusion), S. gordonii strain UB10712, chimera +Hsa EF loop; experiment: as above; parameters: species or system Streptococcus gordonii strain UB10712; conditions: +SLBRHsa EF loop; one-point, 1-2 μg/ml biotinylated glycans
From the text: as §3

[4] = system: UB10712Siglec+Unique (SLBRUB10712, GST fusion), S. gordonii strain UB10712, chimera +Hsa FG loop; experiment: as above; parameters: species or system Streptococcus gordonii strain UB10712; conditions: +SLBRHsa FG loop; one-point, 1-2 μg/ml biotinylated glycans
From the text: as §3

[5] = biological target: SK678Siglec+Unique (SLBRSK678, GST fusion), wild-type, Streptococcus sanguinis strain SK678; experiment: ELISA, biotinylated sialoglycan binding to immobilized GST-adhesin; conditions: ELISA curves
From the text: as §2

[6] = system: SK678Siglec+Unique (SLBRSK678, GST fusion), S. sanguinis strain SK678, chimera +Hsa CD loop; experiment: ELISA, biotinylated sialoglycan binding to immobilized GST-adhesin chimera; parameters: species or system Streptococcus sanguinis strain SK678; conditions: +SLBRHsa CD loop; one-point, 1-2 μg/ml biotinylated glycans
From the text: as §3

[7] = system: SK678Siglec+Unique (SLBRSK678, GST fusion), S. sanguinis strain SK678, chimera +Hsa EF loop; experiment: as above; parameters: species or system Streptococcus sanguinis strain SK678; conditions: +SLBRHsa EF loop; one-point, 1-2 μg/ml biotinylated glycans
From the text: as §3

[8] = system: SK678Siglec+Unique (SLBRSK678, GST fusion), S. sanguinis strain SK678, chimera +Hsa FG loop; experiment: as above; parameters: species or system Streptococcus sanguinis strain SK678; conditions: +SLBRHsa FG loop; one-point, 1-2 μg/ml biotinylated glycans
From the text: as §3

[9] = biological target: T2, UB10712Siglec+Unique (SLBRUB10712, GST fusion), S. gordonii strain UB10712, variant E285R; experiment: ELISA, biotinylated sialoglycan binding to immobilized GST-adhesin
Experimental: (§4) DNA encoding wild-type and variant adhesins were cloned into pGEX-3X. […] DNA encoding adhesin chimeras were cloned into pGEX-3X.
(§5) The pGEX vectors encode an N-terminal glutathione S-transferase (GST) affinity tag, which was used for purification. Individual GST-Siglec+Unique fusions were expressed and purified using glutathione-sepharose, and the binding of biotinylated glycans to immobilized GST-binding regions was performed.

[10] = system: SK678Siglec+Unique (SLBRSK678, GST fusion), S. sanguinis strain SK678, variant E298R; experiment: as above; conditions: for binding selectivity: ELISA; for EC50: ELISA curves
Experimental: as §4, §5

[11] = biological target: SK678Siglec+Unique (SLBRSK678, GST fusion), S. sanguinis strain SK678, variant Q367D; experiment: as above; conditions: ELISA curves
Experimental: Dose response curves of biotin-glycan binding to immobilized variant SLBRs (500 nM). […] Measurements were performed using 500 nM of immobilized GST-adhesin and the indicated concentrations of each ligand are shown as the mean±SD (n=2).
as §4, §5

[12] = ELISA: sialoglycan binding spectrum of wild-type, chimeric and variant adhesins (several ligands, in words); conditions: 500 nM immobilized GST-adhesin, compared with wild-type/parent
Experimental: as §1, §2, §3

[13] = previously reported glycan binding/array; cited from earlier work
human plasma proteins = experiment: Far-western blotting of human plasma proteins with GST-binding regions; conditions: 15 nM probe
Experimental: Each Far Western was performed at least twice, with a representative blot shown.
Far-western blotting of human plasma proteins using the indicated GST-binding regions (15 nM) as probes was performed as described.

Molecule | ligand affinity class [1] | relative binding strength (A450) [2] | relative binding strength (A450) [3] | relative binding strength (A450) [4] | EC50 [5] [µg/mL] | relative binding strength (A450) [6] | relative binding strength (A450) [7] | relative binding strength (A450) [8] | binding selectivity [9] | binding selectivity [10] | EC50 [10] [µg/mL] | EC50 [11] [µg/mL] | change of sialoglycan binding and selectivity [12] | reported sialoglycan selectivity of wild-type adhesin [13] | plasma glycoprotein bound (human plasma proteins)
CC(=O)N[C@H]1[C@H]([C@H](O)[C@H](O)CO)O[C@@](O[C@H]2[C@@H](O)[C@@H](CO)O[C@@H](O[C@H]3[C@H](O[C@@H]4O[C@@H](C)[C@@H](O)[C@@H](O)[C@@H]4O)[C@@H](NC(C)=O)C(O)O[C@@H]3COS(=O)(=O)O)[C@@H]2O)(C(=O)O)C[C@@H]1O (stereo partly drawn) [6S-sLe^X] | low-affinity | +++ (A450 > 1) | +++ (A450 > 1) | + (A450 = 0.3-0.7) | 0.63 (≈ 0.699 µM) | − (A450 < 0.3) | ++ (A450 = 0.7-1) | − (A450 < 0.3) | became selective | became selective | 0.06 (≈ 0.0666 µM) | >5 |  |  | 
CC(=O)N[C@H]1[C@H]([C@H](O)[C@H](O)CO)O[C@@](O[C@H]2[C@@H](O)[C@@H](CO)O[C@@H](O[C@H]3[C@@H](O)[C@@H](CO)OC(O)[C@@H]3NC(C)=O)[C@@H]2O)(C(=O)O)C[C@@H]1O (some centres unmarked) [sTa, Neu5Acα2-3Galβ1-3GalNAc] | high-affinity | + (A450 = 0.3-0.7) | + (A450 = 0.3-0.7) | ++ (A450 = 0.7-1) | >5 | − (A450 < 0.3) | − (A450 < 0.3) | − (A450 < 0.3) |  |  | >5 | >5 |  |  | 
CC(=O)N[C@H]1[C@H]([C@H](O)[C@H](O)CO)O[C@@](O[C@H]2[C@@H](O)[C@@H](CO)O[C@@H](O[C@H]3[C@H](O)[C@@H](CO)OC(O)[C@@H]3NC(C)=O)[C@@H]2O)(C(=O)O)C[C@@H]1O (some centres unmarked) [sLe^C, Neu5Acα2-3Galβ1-3GlcNAc] | high-affinity | − (A450 < 0.3) | + (A450 = 0.3-0.7) | + (A450 = 0.3-0.7) | >5 | − (A450 < 0.3) | − (A450 < 0.3) | − (A450 < 0.3) |  |  | >5 | >5 |  |  | 
CC(=O)N[C@H]1[C@H]([C@H](O)[C@H](O)CO)O[C@@](O[C@H]2[C@@H](O)[C@@H](CO)O[C@@H](O[C@H]3[C@H](O)[C@@H](NC(C)=O)C(O)O[C@@H]3CO)[C@@H]2O)(C(=O)O)C[C@@H]1O (some centres unmarked) [3′sLn, Neu5Acα2-3Galβ1-4GlcNAc] | intermediate-affinity | ++ (A450 = 0.7-1) | +++ (A450 > 1) | ++ (A450 = 0.7-1) | 0.85 (≈ 1.26 µM) | − (A450 < 0.3) | ++ (A450 = 0.7-1) | + (A450 = 0.3-0.7) |  |  | 2.60 (≈ 3.85 µM) | >5 |  |  | 
CC(=O)N[C@H]1[C@H]([C@H](O)[C@H](O)CO)O[C@@](O[C@H]2[C@@H](O)[C@@H](CO)O[C@@H](O[C@H]3[C@H](O)[C@@H](NC(C)=O)C(O)O[C@@H]3COS(=O)(=O)O)[C@@H]2O)(C(=O)O)C[C@@H]1O (stereo partly drawn) [6S-3′sLn] |  |  |  |  |  |  |  |  | became selective | became selective |  |  |  |  | 
B1 |  |  |  |  |  |  |  |  |  |  |  |  | binding preference for sTa | narrow selectivity for the sTa trisaccharide | sTa-modified proteoglycan 4

From patent US20230236193A1, “[…] FOR S[…]” (VANDERBILT UNIVERSITY, priority 2020, published 2023)
